Values quoted from earlier work as cited in patent US9339030B2, “Foamable pesticide compositions and methods of application” (BASF Corporation, priority 2009, dated 2016).

Key:
termites = details: general statement, no experiment described
ants = details: general statement, no experiment described

N#Cc1nn(-c2c(Cl)cc(C(F)(F)F)cc2Cl)c(N)c1[S+]([O-])C(F)(F)F (racemic) [fipronil, (±)-5-amino-1-(2,6-dichloro-α,α,α-trifluoro-p-tolyl)-4-trifluoromethylsulfinylpyrazole-3-carbonitrile]
dose toxic to termites (termites): 2 nanograms per termite | dose toxic to ants (ants): about 1 nanogram per ant
